Laboratory results as given in PubChem BioAssay AID1963866 (Molecular Pharmacology Branch, DTP, NCI, 2024).
pIC50: −log10 of the molar value.

System: PDC KRAS tumor spheroids with HUVEC/MSC, viability
Test: Anticancer human tumor 349418-098-R-PDC patient-derived lung adenocarcinoma cell line growth inhibition [KRAS2]
Conditions: for pIC50: curve of first compound; for viability, T/C: stronger effect = lower value
Excerpt: Multicellular complex tumor spheroid response to RAS pathway inhibitors in combination with a targeted agents in patient-derived cell lines with oncogenic KRAS variants from multiple cancer types
A high-throughput screen of multi-cell type tumor spheroids was designed to identify active combinations of targeted small molecules and KRAS pathway inhibitors. Complex spheroids include a stromal component modeled by human endothelial cells (HUVEC) and fibroblasts modeled by human mesenchymal stem cells (MSCs). The concentration ranges selected for each drug and investigational agent were based upon clinically achievable concentrations if the clinical Cmax of the agent was known.
Compounds. The drugs and investigational agents: BI-3406 (NSC825286), BAY-293 (NSC824723), batoprotafib (TNO155; NSC825523), sotorasib (AMG 510; NSC818433), MRTX1257 (NSC819558), elimusertib (BAY 1895344; NSC800525), molibresib (GSK525762; NSC774829), temuterkib (LY3214996; NSC803410), venetoclax (NSC766270), alisertib (NSC759677), olaparib (NSC753686), talazoparib (NSC767125), erdafitinib (NSC781556), ipatasertib (NSC767898), cabozantinib (NSC761068), nintedanib (NSC756659), abemaciclib (NSC768073), docetaxel (NSC628503), trametinib (NSC758246), and sapanisertib (NSC764658) were obtained from the National Cancer Institute (NCI) Developmental Therapeutics Program Chemical Repository. The FDA-approved anticancer drug set is available from the Developmental Therapeutics Program. […] The stock solutions were prepared in dimethyl sulfoxide (DMSO, Sigma-Aldrich, St. Louis, MO, cat. D2650) at 800-fold the tested concentration and stored at -70 degrees C prior to their use. All drugs and investigational agents were tested over a range starting from a high concentration at or near the clinical Cmax and decreasing in half-log increments. If the clinical Cmax for an agent had not been determined, the highest concentration tested was 10 microM.
Cell Culture. All cells were maintained in an incubator at 37 degrees C and 5% CO2 with 95% humidity. The PDC lines were cultured according to standard operating procedures established by the NCI PDMR (https://pdmr.cancer.gov/sops/default.htm). Briefly, all PDCs were thawed and cultured in Matrigel-coated flasks prepared with a working solution of 1X Ham's F-12 nutrient mix, without supplementation (Invitrogen, Waltham, MA, cat. 11765054), 100 U/mL penicillin-streptomycin (Invitrogen, cat. 15140122), and 2.5% Matrigel (Corning Inc., Corning, NY, cat. 354248) for the first three passages. All PDCs were cultured in complete DMEM/F-12 media containing advanced DMEM/F-12 (Invitrogen, cat. 12634028), 4.9% defined fetal bovine serum, heat inactivated (HyClone Laboratories Inc., Logan, UT, cat. SH30070.03HI), 389 ng/mL hydrocortisone (Sigma-Aldrich, cat. H4001), 9.7 ng/mL human EGF recombinant protein (Invitrogen, cat. PHG0313), 23.4 microg/mL adenine (Sigma-Aldrich, cat. A2786), 97.3 U/mL penicillin-streptomycin (Invitrogen, cat. 15140122), 1.9 mM L-glutamine (Invitrogen, cat. 25030081), and 9.7 microM Y-27632 dihydrochloride (Tocris Bioscience, Bristol, United Kingdom, cat. 1254). The PDCs were cultured in complete DMEM/F12 media without 9.7 microM Y-27632 dihydrochloride for at least two passages prior to the screen. The established cell line HOP-62 was cultured in RPMI 1640 medium, HEPES (Invitrogen, cat. 22400105) with 10% defined fetal bovine serum (HyClone Laboratories Inc., cat. SH30070.03) and 2 mM L-glutamine (Invitrogen, cat. 25030081). The pooled donor HUVEC were cultured in endothelial cell growth medium 2 (PromoCell, Heidelberg, Germany, cat. C-22011) and the hMSC were cultured in mesenchymal stem cell growth medium 2 (PromoCell, cat. C-28009). For all experiments, HUVEC and hMSC were used at passages </=5, while the malignant cell lines were used at passages </=15. […]

[1] = second compound 0.1 µM, first compound 0.000316 µM
[2] = second compound 0.1 µM, first compound 0.001 µM
[3] = second compound 0.1 µM, first compound 0.00316 µM
[4] = second compound 0.1 µM, first compound 0.01 µM
[5] = second compound 0.1 µM, first compound 0.0316 µM
[6] = second compound 0.316 µM, first compound 0.000316 µM
[7] = second compound 0.316 µM, first compound 0.001 µM
[8] = second compound 0.316 µM, first compound 0.00316 µM
[9] = second compound 0.316 µM, first compound 0.01 µM
[10] = second compound 0.316 µM, first compound 0.0316 µM
[11] = second compound 1 µM, first compound 0.000316 µM
[12] = second compound 1 µM, first compound 0.001 µM
[13] = second compound 1 µM, first compound 0.00316 µM
[14] = second compound 1 µM, first compound 0.01 µM
[15] = second compound 1 µM, first compound 0.0316 µM
[16] = second compound 3.16 µM, first compound 0.000316 µM
[17] = second compound 3.16 µM, first compound 0.001 µM
[18] = second compound 3.16 µM, first compound 0.00316 µM
[19] = second compound 3.16 µM, first compound 0.01 µM
[20] = second compound 3.16 µM, first compound 0.0316 µM
[21] = second compound 10 µM, first compound 0.000316 µM
[22] = second compound 10 µM, first compound 0.001 µM
[23] = second compound 10 µM, first compound 0.00316 µM
[24] = second compound 10 µM, first compound 0.01 µM
[25] = second compound 10 µM, first compound 0.0316 µM
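Note: spheroids exposed to compounds for seven days before readout.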

| Structure (SMILES) | pIC50 (second compound 0.1 µM) | pIC50 (second compound 0.316 µM) | pIC50 (second compound 1 µM) | pIC50 (second compound 3.16 µM) | pIC50 (second compound 10 µM) | viability, T/C [1] [%] | viability, T/C [2] [%] | viability, T/C [3] [%] | viability, T/C [4] [%] | viability, T/C [5] [%] | viability, T/C [6] [%] | viability, T/C [7] [%] | viability, T/C [8] [%] | viability, T/C [9] [%] | viability, T/C [10] [%] | viability, T/C [11] [%] | viability, T/C [12] [%] | viability, T/C [13] [%] | viability, T/C [14] [%] | viability, T/C [15] [%] | also measured |
| --- | --- | --- | --- | --- | --- | --- | --- | --- | --- | --- | --- | --- | --- | --- | --- | --- | --- | --- | --- | --- | --- |
| CC(=O)Nc1cccc(-n2c(=O)n(C3CC3)c(=O)c3c(Nc4ccc(I)cc4F)n(C)c(=O)c(C)c32)c1 + C=CC(=O)N1CCN(c2nc(=O)n(-c3c(C)ccnc3C(C)C)c3nc(-c4c(O)cccc4F)c(F)cc23)C(C)C1 | > 10.00 | > 10.00 | > 10.00 | > 10.00 | > 10.00 | 21.9 | 20.4 | 17.6 | 11 | 7.55 | 31.2 | 25.3 | 19.1 | 11.8 | 9.88 | 34.8 | 23.4 | 19.3 | 13.4 | 8.89 | viability, T/C (second compound 0.1 µM, first compound 0.0001 µM): 48.6%; viability, T/C (second compound 0.316 µM, first compound 0.0001 µM): 34.9%; viability, T/C (second compound 1 µM, first compound 0.0001 µM): 39.4%; viability, T/C (second compound 3.16 µM, first compound 0.0001 µM): 39.5%; viability, T/C [16]: 29%; viability, T/C [17]: 22%; viability, T/C [18]: 20.9%; viability, T/C [19]: 13%; viability, T/C [20]: 10%; viability, T/C (second compound 10 µM, first compound 0.0001 µM): 25.4%; viability, T/C [21]: 17.4%; viability, T/C [22]: 18.2%; viability, T/C [23]: 15.9%; viability, T/C [24]: 10.7%; viability, T/C [25]: 9.82% |
| CC(C)n1nc(-c2ccc3oc(N)nc3c2)c2c(N)ncnc21 + C=CC(=O)N1CCN(c2nc(=O)n(-c3c(C)ccnc3C(C)C)c3nc(-c4c(O)cccc4F)c(F)cc23)C(C)C1 | 9.08 | 9.06 | 9.26 | > 9.50 | > 9.50 | 87.7 | 42.6 | 17.4 | 9.72 | 7.63 | 70.5 | 47 | 19 | 8.07 | 7.39 | 68 | 30.5 | 15.7 | 8.07 | 6.75 | viability, T/C (second compound 0.1 µM, first compound 0.1 µM): 6.75%; viability, T/C (second compound 0.316 µM, first compound 0.1 µM): 6.37%; viability, T/C (second compound 1 µM, first compound 0.1 µM): 6.16%; viability, T/C [16]: 37.9%; viability, T/C [17]: 35.5%; viability, T/C [18]: 10.3%; viability, T/C [19]: 7.68%; viability, T/C [20]: 6.06%; viability, T/C (second compound 3.16 µM, first compound 0.1 µM): 6.09%; viability, T/C [21]: 26.1%; viability, T/C [22]: 15.7%; viability, T/C [23]: 10.1%; viability, T/C [24]: 7.31%; viability, T/C [25]: 6.65%; viability, T/C (second compound 10 µM, first compound 0.1 µM): 6.48% |
